System: γδ T lymphocytes
Assay: In vivo amplification of γδ T lymphocytes in primates

3-(bromomethyl)-3-butanol-1-yl-diphosphate [BrHPP]
amplification of γδ T lymphocytes in vivo (BrHPP 90 mg/kg i.v. with IL-2 in rituximab-treated animals): efficiently and repeatedly amplified
level and kinetics of γδ T lymphocyte response (BrHPP in rituximab-treated animals compared with BrHPP alone): at least as good as what is generally observed with BrHPP alone

From patent publication US20090304688A1, “Methods and Compositions for Increasing the Efficiency of Therapeutic Antibodies Using Gamma Delta T Cell Activators” (INNATE PHARMA S.A., priority 2006, published 2009)
